{"source": "patent US10864212B2", "about": "“Compositions and methods for treating retinal degradation” (University of Kentucky Research Foundation, priority 2013, dated 2020)", "key": {"[1]": {"system": "mtDNA", "assay": "mtDNA levels in primary mouse RPE cells by real-time quantitative PCR", "format": "cell-based", "excerpt": "(§1) The present disclosure further provides the results of additional experiments in FIG. 21-FIG. 23."}, "[2]": {"system": "GFP-expressing lentivirus", "assay": "Replication of a GFP-expressing lentivirus in HeLa cells", "format": "cell-based", "settings": "HeLa cells; FIG. 22", "excerpt": "as §1"}, "[3]": {"system": "RPE degeneration", "assay": "RPE degeneration in mice after sub-retinal injection of a plasmid expressing Alu RNA, systemic drug administration", "format": "in vivo, mouse", "settings": "daily oral administration of d4T, FIG. 36", "from_the_text": "FIG. 24, top row, provides flat mounts stained for zonula occludens-1 (ZO-1; red), bottom row. Degeneration is outlined if FIG. 24 by blue arrowheads. Representative images of n=4 are shown.\nFIG. 36 and FIG. 37 include fundus photographs: top row; flat mounts stained for zonula occludens-1 (ZO-1; red), bottom row. Degeneration is outlined by blue arrowheads. Scale bars, 50 μm."}, "[4]": {"system": "IL-18", "assay": "LPS/ATP-induced IL-18 maturation in mouse bone marrow-derived macrophages (Western blot)", "format": "cell-based", "settings": "supernatants, 100 uM, FIG. 9", "excerpt": "To produce FIG. 9, cell culture supernatants were collected after (i) no treatment, (ii) LPS treatment, or (iii) LPS/ATP treatment of mouse bone marrow-derived macrophages and run on Western blotting probing with antibodies for Caspase-1 and IL-18."}, "[5]": {"system": "ATP release", "assay": "ATP release induced by Alu RNA from primary human RPE cells (ATP-dependent luciferase assay)", "format": "cell-based", "settings": "cell culture supernatant, FIG. 16, 42", "excerpt": "Cell culture supernatant was collected from mock or Alu RNA treated cells, with or without d4T, and ATP was detected using an ATP-dependent luciferase assay.\n(FIG. 16) Primary human RPE cells treated with Alu RNA for the times indicated release ATP. […] ATP was detected using an ATP-dependent luciferase assay."}, "[6]": {"system": "Caspase-1", "assay": "Western blot of Caspase-1 activation in primary mouse RPE cells transfected with Alu RNA", "format": "cell-based", "settings": "FIG. 44"}, "[7]": {"target": "T1, human P2X7 receptor (Homo sapiens, UniProt Q99572)", "T1 construct": "expressed in transfected cells", "T1 sequence (Q99572 1-595)": "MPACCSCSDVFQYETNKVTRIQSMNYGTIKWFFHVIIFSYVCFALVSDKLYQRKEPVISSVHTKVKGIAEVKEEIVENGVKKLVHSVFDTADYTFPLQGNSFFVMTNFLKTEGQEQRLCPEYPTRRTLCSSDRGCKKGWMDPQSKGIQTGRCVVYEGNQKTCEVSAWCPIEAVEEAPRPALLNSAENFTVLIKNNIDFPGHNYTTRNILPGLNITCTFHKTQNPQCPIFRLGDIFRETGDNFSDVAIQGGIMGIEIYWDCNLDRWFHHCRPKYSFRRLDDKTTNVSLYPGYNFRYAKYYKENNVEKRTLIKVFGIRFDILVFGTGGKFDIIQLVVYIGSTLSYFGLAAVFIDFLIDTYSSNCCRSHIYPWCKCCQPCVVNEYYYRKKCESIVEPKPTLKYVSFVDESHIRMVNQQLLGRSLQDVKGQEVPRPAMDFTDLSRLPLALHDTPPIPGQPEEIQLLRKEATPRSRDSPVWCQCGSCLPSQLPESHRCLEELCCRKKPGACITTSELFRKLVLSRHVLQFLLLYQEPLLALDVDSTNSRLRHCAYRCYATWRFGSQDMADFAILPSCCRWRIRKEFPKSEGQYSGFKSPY", "assay": "Patch clamp analysis of P2X7 cation channel function, HEK293 stable cell line expressing human P2X7 receptor", "format": "cell-based"}}, "note": "“Also recorded” adds a separate entry of the source.", "data": [{"smiles": "Cc1cn([C@H]2C=C[C@@H](CO)O2)c(=O)[nH]c1=O", "note": "[d4T, 2′3′ dideoxythymidine]", "values": [{"measurement": "mtDNA levels (normalized to chromosomal DNA exon-intron junction sequence)", "setting": "[1]", "value": "reduces mtDNA levels"}, {"measurement": "Replication of a GFP-expressing lentivirus", "setting": "[2]", "value": "blocks replication of a GFP-expressing lentivirus"}, {"measurement": "RPE degeneration caused by pAlu", "setting": "[3]", "value": "blocked RPE degeneration; also recorded: prevented"}, {"measurement": "IL-18 maturation induced by LPS/ATP", "setting": "[4]", "value": "inhibit"}, {"measurement": "ATP release induced by Alu RNA", "setting": "[5]", "value": "does not block release of ATP; also recorded: did not affect ATP release; also recorded: does not block Alu-induced ATP release"}, {"measurement": "Caspase 1 cleavage to its active 20 kDa form", "setting": "[6]", "value": "prevents Caspase 1 cleavage to its active 20 kDa form"}, {"measurement": "P2X7 cation channel function (patch clamp)", "setting": "[7]", "value": "did not significantly modulate P2X7 cation channel function"}]}]}
